Reference: article PMC11085208, “Cyclometalated and NNN Terpyridine Ruthenium Photocatalysts and Their Cytotoxic Activity” (Molecules, 2024)
“And” between values parts separate entries of the source, which are not always exact repeats. Equal entries are not always repeated. “Also recorded” adds a separate entry of the source.

Columns and labels:
SW1736 cells = experiment: MTT cell viability assay, SW1736 cells; format: cell-based, human; conditions: for ED50 SW1736: MTT test, 72 h, mean ± SD
Description: (§1) Anaplastic thyroid cancer (ATC), while rare, remains one of the deadliest cancers known, showing a median overall survival of 3 months. […] Several therapeutic strategies were thus developed, ranging from more classical methods such as inhibition of cyclin-dependent kinases, to more innovative ones including the use of epigenetic drugs. However, so far, all efforts made in the search for new molecules that can counteract the very high mortality of ATC have often been thwarted by the relative ease with which cancer cells are able to gain drug resistance. For these reasons, the development of new molecules that can increase ATC treatment options is crucial in an effort to extend the life expectancy. A preliminary assessment of the effects of the compounds under consideration involved studying their effectiveness in terms of cell viability. In order to evaluate the antitumor efficacy of ruthenium compounds, they were administered to ATC cells (SW1736 and 8505C) and to a non-tumorigenic thyroid cell line (Nthy-ori 3-1) at increasing doses, and an MTT assay was performed. Once the effects in terms of cell viability were observed, the effective dose 50 (ED50) was calculated by interpolation of the scatter plot curve (dose/effect). The two lines of ATC were similarly sensitive to each of the compounds tested, with the ED50 spanning from 0.3 to 8 µM, calculated at a 72 h time point (Table 2).
(§2) In this study, we used two different human anaplastic thyroid cancer cell lines (SW1736 and 8505C) and a non-tumorigenic thyroid cell line (Nthy-ori 3-1) that were grown as previously described. All cell lines have been validated by short tandem repeat and tested for being mycoplasma-free. Cells were grown in RPMI 1640 medium (EuroClone, Milan, Italy) supplemented with 10% fetal bovine serum (Gibco Invitrogen, Milan, Italy), 2 mM L-glutamine (EuroClone, Milan, Italy), and […] gentamicin (Gibco Invitrogen, Milan, Italy). Cells were maintained in a humidified incubator (5% CO2, 37 °C).
(§3) In order to test cell viability, we applied the methylthiazolyldiphenyl-tetrazolium bromide (MTT) assay as previously described. SW1736, 8505C and Nthy-ori 3-1cells (3000 cells/well) were plated onto 96-well plates in 200 μL medium/well and were allowed to attach to the plate for 24 h (t0). Plates were then treated either with DMSO or with each of the different compounds at different concentrations for 72 h. Then, 4 mg/mL MTT (Merck, Darmstadt, Germany) was added to the cell medium, and cells were cultivated for another 4 h in the incubator. The supernatant was removed, 100 μL/well of DMSO (Merck, Darmstadt, Germany) was added, and the absorbance at 570 nm was measured. All experiments were run sixfold and cell viability was expressed as a fold change compared to control. ED50 was calculated by interpolation of the scatter plot obtained by crossing each dose with its own observed effect.

8505C cells = experiment: MTT cell viability assay, 8505C cells; format: cell-based, human; conditions: MTT test, 72 h, mean ± SD
Description: as §1, §2, §3

Nthy-ori 3-1 cells = experiment: MTT cell viability assay, non-tumorigenic Nthy-ori 3-1 cells; format: cell-based, human; conditions: MTT test, 72 h, nontumorigenic thyroid cells, mean ± SD
Description: as §1, §2, §3

[1] = tested on: anaplastic thyroid cancer 8505C and SW1736 cell lines; experiment: MTT cell viability assay, ATC cell lines taken together; format: cell-based; conditions: 72 h
Description: as §1
In this study, we used two different human anaplastic thyroid cancer cell lines (SW1736 and 8505C) and a non-tumorigenic thyroid cell line (Nthy-ori 3-1) that were grown as previously described. […]
In order to test cell viability, we applied the methylthiazolyldiphenyl-tetrazolium bromide (MTT) assay as previously described. […] The supernatant was removed, 100 μL/well of DMSO (Merck, Darmstadt, Germany) was added, and the absorbance at 570 nm was measured. All experiments were run sixfold and cell viability was expressed as a fold change compared to control. ED50 was calculated by interpolation of the scatter plot obtained by crossing each dose with its own observed effect.

Compound | ED50 SW1736 (SW1736 cells) | ED50 8505C (8505C cells) | ED50 Nthy-ori 3-1 (Nthy-ori 3-1 cells) | cytotoxicity (in words) [1] | cytotoxicity (ED50) compared to the enantiomer 6 (SW1736 cells; ED50 0.31 vs 1.39 µM)
[RuCl(NNN-tpy)((S,S)-Skewphos)]PF6 [reference compound] | 2.63 µM and 2.63 ± 0.14 µM | 2.25 ± 0.17 µM | 7.21 ± 0.74 µM | – | –
[Ru(η^1-OAc)(NNN-tpy)((R,R)-Skewphos)]OAc [Complex 6] | 1.39 µM and 1.39 ± 0.14 µM | 1.88 ± 0.21 µM | 4.38 ± 0.13 µM | – | –
[Ru(η^2-OAc)(NC-tpy)((R,R)-Skewphos)] [Complex 4] | 2.18 ± 0.16 µM | 1.95 ± 0.23 µM | 3.88 ± 0.31 µM | moderate cytotoxicity | –
[Ru(η^1-OAc)(NNN-tpy)((S,S)-Skewphos)]OAc [Complex 7] | 0.31 µM and 0.31 ± 0.11 µM | 0.75 ± 0.09 µM | 4.85 ± 0.17 µM | – | four times lower; also recorded: four times higher
[RuCl(NNN-tpy)((R,R)-Skewphos)]Cl [reference compound] | 3.36 ± 0.42 µM | 4.57 ± 0.53 µM | 6.91 ± 0.62 µM | – | –
N.N.[Cl][Pt][Cl] [Cisplatin, reference compound] | 6.40 ± 1.54 µM | 5.20 ± 1.82 µM | 11.28 ± 0.96 µM | – | –
[Ru(η^2-OAc)(NC-tpy)((S,S)-Skewphos)] [Complex 5] | 2.11 ± 011 µM | 2.06 ± 0.26 µM | 4.18 ± 0.09 µM | moderate cytotoxicity | –
[Ru(η^2-OAc)(NC-tpy)(dppb)] [Complex 1] | 8.53 ± 0.98 µM | 7.73 ± 1.02 µM | 10.59 ± 1.28 µM | moderate cytotoxicity | –
